# “Also recorded” adds a separate entry of the source.
# Test system: PC-9 cells
# Assay: Soft agar clonogenic assay, PC-9
# Assay type: cell-based
# Conditions: 14 days, 3.75-15 μM
# Procedure: We utilized an MTT assay to determine the potency of the compounds for inhibiting cell growth. […] We next asked whether T151742 induced inhibition of cell growth was dependent on ERO1α expression. As shown in FIG. 6C two ERO1α deleted clones in the PC-9 cell line were isolated. Using an MTT assay to determine overall cellar viability, a non-targeted control (scramble), and both ERO1α knockout clones was subjected to treatment with T151742 for 72 hours (See FIG. 6D). […] Though only slight differences were observed between T151742 and EN-460 we tested the effects of these compounds in a clonogenic assay which is a better test for inhibition of self-renewal.
# FIG. 7A and FIG. 7B show 1000 cells/well were plated in a 12-well plate in triplicate with either 0.5% DMSO, T151742, or EN-460 and allowed to form colonies for 14 days. Colonies were subsequently stained with 0.01% Crystal Violet, imaged, and quantified using ImageJ. […] Colonies were stained with 0.01% Crystal Violet, imaged, and quantified using ImageJ.
# Cell Lines: PC-9 cell line used was obtained from Sigma Aldrich and grown in RPMI 1640 medium with 10% fetal bovine serum and 1% penicillin/streptomycin. […] Plate was then read on the BioTek Cytation 5 at 530/590 nm. […] Plate was then read at 570 nm. […] Images were then quantified using ImageJ. […]
smiles,measurement,value
CN(C)c1ccc(/C=C2\Oc3cc(O)ccc3C2=O)cc1 [Compound T151742],activity in clonogenicity assay (colony number),retained activity; also recorded: significantly more potent at reducing colony number

# — patent US20250064773A1, “TARGETING ERO1 ALPHA WITH AURONE DERIVATIVES” (West Virginia University Board of Governors on behalf of …, priority 2021, published 2025)
